Data taken from patent US4313943A, “7-Chloro-2,3-dihydro-5-phenyl-1-propargyl-1H-1,4-benzodiazepine-2-one, and a pharmaceutical composition thereof” (priority 1972, dated 1982).

Tests used:
Assay type in all cases: in vivo
[1] = Rotarod test, equilibrium (Table 6); conditions: for changes in equilibrium / motor coordination: in vivo
[2] = Aggressive behavior elicited by foot shock; conditions: oral
Text: The aggressive behavior of test animals was elicited by a conventional foot shock procedure after administration of Compounds 1 and 4.

[3] = Spontaneous mobility (Svenson and Thieme); conditions: for ED50: po, read-out: oral ED50 (depressing spontaneous mobility)
Experimental: Spontaneous mobility in test animals was determined by the Svenson and Thieme procedure as published in Psychopharmacologia, Vol. 14, 1969, pages 157 et seq.

[4] = Modifications in the electrocorticogram (ECoG) of unanesthetized animals, R index; conditions: for duration of effect on spontaneous electrogenesis / latency of the effects: 1.5 mg/kg; for average duration of effect on spontaneous electrogenesis: 3.75 mg/kg; for Cortical reactivity induced by exteroceptive stimulation: 30 mg/kg; for duration of effects on spontaneous electrogenesis: 7.5, 15 and 30 mg/kg
Experimental: Twenty-four hours prior to the test, the surface of a test animal's skull was exposed and stainless steel electrodes were screwed through the lamina externa to make contact with the dura matter in the frontal, parietal and occipital regions, on both sides of the median and transverse sutures. The ECoG was recorded on a REEGA MINI HUIT (Alvar Electronic) encephalograph with a transverse circuit, with bi-frontal, bi-parietal and bi-occipital leads and a longitudinal circuit, with fronto-pariental and parieto-occipital leads on both left and right. One track was used to record respiration, with leads from two steel needles placed under the shin, on either side of the thorax.
Some test animals were kept in restraint cases placed in a relatively soundproof room and some were left free to move in metal cases measuring 40×50×30 cm, which were also kept in a relatively quiet environment.
The activity of the test compounds studied was judged on the one hand by the pattern of spontaneous electrogenesis, especially by the relative degree to which the three basic rhythms of the ECoG in the animals were represented; the theta rhythm (4-8 c/sec.), predominant and characteristic of the state of wakefulness in the posterior regions; bursts of rapid spiked waves (alpha rhythm, 9-15 c/sec.) recorded in the course of diffused wakefulness, and slow waves (delta rhythm, 0.5-3 c/sec.) which are absent in a state of wakefulness except in pathological conditions or in the presence of medicinal substances, a rhythm characteristic of slow-wave sleep. The rapid, low-voltage beta rhythm, not very characteristic of the ECoG in the test animals used and primarily superimposed on the other rhythms, was not analyzed.
Possible modifications in cortical reactivity were also investigated, using two types of stimulation, one comprised an auditory stimulus (whistle blasts) and the other a nociceptive stimulus delivered to the cutaneous nerve endings by pinching the dorsal skin with Kocher's clamps.
To the foregoing qualitative analysis, a quantitative analysis concerning the evolution of spontaneous electrogenesis under the influence of test compounds 1 and 4 was added. The activity of the two compounds was judged by variations in an "R" index, defined as the ratio between the theta waking rhythm, slow waves and bursts of rapid spiked waves. Initially, R was evaluated quantitatively on a scale from 0 to 4 and after this initial estimate, variations in the R index were rated on a scale from 0 to 5 as follows:
1. Maintenance of the value calculated in making the reference tracking (basal value) 0 since variation is nil.
2. Reduction in basal values
(a) reduction of basal value by one-half -1.
(b) observed value between 1/2 and 1/5 of basal value -2.
(c) observed value between 1/5 and 1/10 of basal value -3.
(d) observed value between 1/10 and 1/20 of basal value -4.
(e) observed value lower than 1/20 of basal value, reflecting maximum perturbation of spontaneous ECoG and expressing either a pathological condition or a state of slow-wave sleep, with the absence of theta rhythms and the exclusive presence of slow waves and/or bursts of rapid spiked waves -5.
Once the various values were allocated to each animal, the mean of these values were calculated for each experimental period. From these means, calculations were made of the percentages of variation as compared to a theoretical maximum value of -5 for each experimental period. The percentage for each period was calculated every 30 minutes for 7 hours, with a theoretical total of -10 per hour, then between 7 and 48 hours (theoretical total […]) and between the time of administering the test compound and the 48th hour (theoreticaltotal -90). Variations of 10% were not regarded as significant. All dosages were administered intragastrically through the esophageal tube. […]

[5] = 7.5 mg/kg intragastric, 2 Hours
[6] = 7.5 mg/kg intragastric, 3 Hours
[7] = 7.5 mg/kg intragastric, 4 Hours
[8] = 7.5 mg/kg intragastric, 5 Hours
[9] = 7.5 mg/kg intragastric, 6 Hours
[10] = 7.5 mg/kg intragastric, 7 Hours
[11] = 7.5 mg/kg intragastric, 48 Hours (7-48 h)
[12] = 7.5 mg/kg intragastric, After 48 Hours (0-48 h total)
[13] = 15.0 mg/kg intragastric, 1 Hour
[14] = 15.0 mg/kg intragastric, 2 Hours
[15] = 15.0 mg/kg intragastric, 3 Hours
[16] = 15.0 mg/kg intragastric, 4 Hours
[17] = 15.0 mg/kg intragastric, 5 Hours
[18] = 15.0 mg/kg intragastric, 6 Hours
[19] = 15.0 mg/kg intragastric, 7 Hours
[20] = 15.0 mg/kg intragastric, 48 Hours (7-48 h)
[21] = 15.0 mg/kg intragastric, After 48 Hours (0-48 h total)
[22] = 30.0 mg/kg intragastric, 1 Hour
[23] = 30.0 mg/kg intragastric, 2 Hours
[24] = 30.0 mg/kg intragastric, 3 Hours
[25] = 30.0 mg/kg intragastric, 4 Hours
[26] = 30.0 mg/kg intragastric, 5 Hours
[27] = 30.0 mg/kg intragastric, 6 Hours
[28] = 30.0 mg/kg intragastric, 7 Hours
[29] = 30.0 mg/kg intragastric, 48 Hours (7-48 h)
[30] = 30.0 mg/kg intragastric, After 48 Hours (0-48 h total)

C#CCN1C(=O)CN=C(c2ccccc2)c2cc(Cl)ccc21 [Compound 1, 7-chloro-2,3-dihydro-5-phenyl-1-propargyl-1H-1,4-benzodiazepin-2-one]
Rotarod Test % of Animals With Unchanged Equilibrium ([1]; 1 mg/kg): 41.7% | Rotarod Test % of Animals With Unchanged Equilibrium ([1]; 3 mg/kg): 58.3% | changes in equilibrium / motor coordination [1]: does not produce changes in motor activity or in equilibrium | ED50 [2]: 3.3 mg/kg | activity in depressing spontaneous mobility compared with Compound 4 ([3]; in vivo): approximately three times less active than Compound 4 | ED50 [3]: 76.6 mg/kg | duration of effect on spontaneous electrogenesis [4]: 2 h | latency of the effects [4]: 21 min | average duration of effect on spontaneous electrogenesis [4]: 4 h | R index variation, Mean ([4]; 7.5 mg/kg intragastric, 1 Hour): -7.5 | R index, % of Variation ([4]; 7.5 mg/kg intragastric, 1 Hour): -50.0% | R index variation, Mean [4, 5]: -6.0 | R index, % of Variation [4, 5]: -60.0% | R index variation, Mean [4, 6]: -4.5 | R index, % of Variation [4, 6]: -45.0% | R index variation, Mean [4, 7]: -4.0 | R index, % of Variation [4, 7]: -40.0% | R index variation, Mean [4, 8]: -3.0 | R index, % of Variation [4, 8]: -30.0% | R index variation, Mean [4, 9]: -2.0 | R index, % of Variation [4, 9]: -20.0% | R index variation, Mean [4, 10]: -1.5 | R index, % of Variation [4, 10]: -15.0% | R index variation, Mean [4, 11]: -0.5 | R index, % of Variation [4, 11]: -3.3% | R index variation, Mean [4, 12]: -29.0 | R index, % of Variation [4, 12]: -32.2% | R index variation, Mean [4, 13]: -11.5 | R index, % of Variation [4, 13]: -76.7% | R index variation, Mean [4, 14]: -7.0 | R index, % of Variation [4, 14]: -70.0% | R index variation, Mean [4, 15]: -5.5 | R index, % of Variation [4, 15]: -55.0% | R index variation, Mean [4, 16]: -5.5 | R index, % of Variation [4, 16]: -55.0% | R index variation, Mean [4, 17]: -4.0 | R index, % of Variation [4, 17]: -40.0% | R index variation, Mean [4, 18]: -2.0 | R index, % of Variation [4, 18]: -20.0% | R index variation, Mean [4, 19]: -2.0 | R index, % of Variation [4, 19]: -20.0% | R index variation, Mean [4, 20]: +1.5 | R index, % of Variation [4, 20]: +10.0% | R index variation, Mean [4, 21]: -36.0 | R index, % of Variation [4, 21]: -40.0% | Cortical reactivity induced by exteroceptive stimulation [4]: remained unchanged | R index variation, Mean [4, 22]: -8.66 | R index, % of Variation [4, 22]: -57.7% | R index variation, Mean [4, 23]: -6.99 | R index, % of Variation [4, 23]: -69.9% | R index variation, Mean [4, 24]: -6.99 | R index, % of Variation [4, 24]: -69.9% | R index variation, Mean [4, 25]: -6.33 | R index, % of Variation [4, 25]: -63.3% | R index variation, Mean [4, 26]: -4.33 | R index, % of Variation [4, 26]: -43.3% | R index variation, Mean [4, 27]: -1.32 | R index, % of Variation [4, 27]: -13.2% | R index variation, Mean [4, 28]: -0.99 | R index, % of Variation [4, 28]: -9.9% | R index variation, Mean [4, 29]: -1.66 | R index, % of Variation [4, 29]: -11.1% | R index variation, Mean [4, 30]: -37.3 | R index, % of Variation [4, 30]: -41.4% | duration of effects on spontaneous electrogenesis [4]: at least 5 hours

C#CCN1C(=O)CN=C(c2ccccc2Cl)c2cc(Cl)ccc21 [Compound 4, 7-chloro-2,3-dihydro-5-(2-chlorophenyl)-1-propargyl-1,H-1,4-benzodiazepine-2-one]
Rotarod Test % of Animals With Unchanged Equilibrium ([1]; 1 mg/kg): 50.0% | Rotarod Test % of Animals With Unchanged Equilibrium ([1]; 3 mg/kg): 8.3% | changes in equilibrium / motor coordination [1]: degradation of motor coordination | ED50 [2]: 2.7 mg/kg | ED50 [3]: 20.1 mg/kg | duration of effect on spontaneous electrogenesis [4]: 2 h | latency of the effects [4]: 25 min | average duration of effect on spontaneous electrogenesis [4]: 4 h | R index variation, Mean ([4]; 7.5 mg/kg intragastric, 1 Hour): -9.5 | R index, % of Variation ([4]; 7.5 mg/kg intragastric, 1 Hour): -63.3% | R index variation, Mean [4, 5]: -7.5 | R index, % of Variation [4, 5]: -75.0% | R index variation, Mean [4, 6]: -6.0 | R index, % of Variation [4, 6]: -60.0% | R index variation, Mean [4, 7]: -3.0 | R index, % of Variation [4, 7]: -30.0% | R index variation, Mean [4, 8]: -4.5 | R index, % of Variation [4, 8]: -45.0% | R index variation, Mean [4, 9]: -1.5 | R index, % of Variation [4, 9]: -15.0% | R index variation, Mean [4, 10]: -1.00 | R index, % of Variation [4, 10]: -10.0% | R index variation, Mean [4, 11]: 0 | R index, % of Variation [4, 11]: 0% | R index variation, Mean [4, 12]: -33.0 | R index, % of Variation [4, 12]: -36.7% | R index variation, Mean [4, 13]: -13.0 | R index, % of Variation [4, 13]: -86.7% | R index variation, Mean [4, 14]: -8.5 | R index, % of Variation [4, 14]: -85.0% | R index variation, Mean [4, 15]: -7.0 | R index, % of Variation [4, 15]: -70.0% | R index variation, Mean [4, 16]: -5.5 | R index, % of Variation [4, 16]: -55.0% | R index variation, Mean [4, 17]: -5.0 | R index, % of Variation [4, 17]: -50.0% | R index variation, Mean [4, 18]: -1.5 | R index, % of Variation [4, 18]: -15.0% | R index variation, Mean [4, 19]: -1.50 | R index, % of Variation [4, 19]: -15.0% | R index variation, Mean [4, 20]: +1.50 | R index, % of Variation [4, 20]: +10.0% | R index variation, Mean [4, 21]: -40.5 | R index, % of Variation [4, 21]: -45.0% | Cortical reactivity induced by exteroceptive stimulation [4]: remained unchanged | R index variation, Mean [4, 22]: -6.99 | R index, % of Variation [4, 22]: -46.7% | R index variation, Mean [4, 23]: -5.32 | R index, % of Variation [4, 23]: -53.2% | R index variation, Mean [4, 24]: -6.32 | R index, % of Variation [4, 24]: -63.2% | R index variation, Mean [4, 25]: -4.99 | R index, % of Variation [4, 25]: -49.9% | R index variation, Mean [4, 26]: -2.99 | R index, % of Variation [4, 26]: -29.9% | R index variation, Mean [4, 27]: -2.33 | R index, % of Variation [4, 27]: -23.3% | R index variation, Mean [4, 28]: -0.66 | R index, % of Variation [4, 28]: -6.6% | R index variation, Mean [4, 29]: -1.98 | R index, % of Variation [4, 29]: -13.2% | R index variation, Mean [4, 30]: -31.58 | R index, % of Variation [4, 30]: -35.1% | duration of effects on spontaneous electrogenesis [4]: at least 5 hours
